Laboratory results from publication PMC3364022 (Journal of the American Chemical Society, 2011).
Where a SMILES comes first, the peptide text is derived from it. [ ]: non-standard residue; d: D form. β3hW = N[C@H](CC(=O)O)Cc1c[nH]c2ccccc12; β3hY = N[C@H](CC(=O)O)Cc1ccc(O)cc1; β3hR = N=C(N)NCCC[C@H](N)CC(=O)O; β3hF = N[C@H](CC(=O)O)Cc1ccccc1; β3hQ = NC(=O)CC[C@H](N)CC(=O)O; βAla = NCCC(=O)O

Target: Bcl-xL (Homo sapiens, UniProt Q07817)
Experiment: Competition fluorescence polarization
Format: binding
Settings: competition FP Ki, relative to α-peptide 1

Sequence of Bcl-xL (Q07817 whole entry): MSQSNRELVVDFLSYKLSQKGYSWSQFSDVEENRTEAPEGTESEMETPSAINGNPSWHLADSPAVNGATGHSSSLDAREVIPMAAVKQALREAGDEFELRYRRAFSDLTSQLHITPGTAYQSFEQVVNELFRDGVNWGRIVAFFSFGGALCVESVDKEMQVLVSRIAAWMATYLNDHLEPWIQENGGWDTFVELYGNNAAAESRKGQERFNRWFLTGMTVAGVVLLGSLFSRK

## CC[C@H](C)[C@H](NC(C)=O)C(=O)N[C@H](CC(=O)N[C@H](C(=O)N[C@@H](C)C(=O)N[C@@H](CCC(N)=O)CC(=O)N[C@@H](CCC(=O)O)C(=O)N[C@@H](CC(C)C)C(=O)N[C@@H](CCCNC(=N)N)CC(=O)N[C@@H](CCCNC(=N)N)C(=O)N[C@H](C(=O)NCCC(=O)N[C@@H](CC(=O)O)C(=O)N[C@@H](CCC(=O)O)C(=O)N[C@H](CC(=O)N[C@@H](CC(N)=O)C(=O)N[C@@H](C)C(=O)N[C@H](CC(=O)N[C@@H](Cc1ccc(O)cc1)C(N)=O)Cc1ccc(O)cc1)Cc1ccccc1)[C@@H](C)CC)[C@@H](C)CC)Cc1c[nH]c2ccccc12 [3c] (Ac-I[β3hW]IA[β3hQ]EL[β3hR]RI[βAla]DE[β3hF]NA[β3hY]Y-NH2)
  Affinity for Bcl-xL, fold weaker than observed for 1: 23 fold
